The NIST ThermoML archive (doi:10.1016/j.tca.2013.05.015)

Test: mn = molality of the nth substance listed, in mol/kg
Settings: 101 kPa, Liquid; for speed of sound: Sing-around technique in a fixed-path interferometer; for mass density: Vibrating tube method

CCCCCCCC[N+](C)(CCCCCCCC)CCCCCCCC.O=S(=O)([N-]S(=O)(=O)C(F)(F)F)C(F)(F)F + CCO
Settings	mass density, 298.15 K [kg/m3]	mass density, 303.15 K [kg/m3]	mass density, 308.15 K [kg/m3]	mass density, 313.15 K [kg/m3]	speed of sound, 298.15 K [m/s]	speed of sound, 303.15 K [m/s]	speed of sound, 308.15 K [m/s]	speed of sound, 313.15 K [m/s]
m1 = 0.022	787.5	783.3	778.6	774	1150	1129	1099	1087
m1 = 0.0465	790.5	786.3	781.5	777	1151	1130	1100	1088
m1 = 0.0692	793.7	789.3	784.3	779.5	1152	1131	1101	1089
m1 = 0.1378	805.5	801.2	797	792.6	1154	1134	1116	1104
m1 = 0.2691	825.5	821.5	816.6	812	1158	1140	1122	1110
m1 = 0.4006	844.7	840.6	836.4	832.3	1170	1149	1134	1116
m1 = 0.6112	868.3	864.6	860.4	856.3	1176	1158	1140	1125
m1 = 0.8299	883.8	879.9	875.8	866.2	1179	1161	1146	1131
m1 = 1.008	892.6	888.9	884.8	880.7	1182	1164	1149	1134
m1 = 1.28	910.2	906.5	902.4	898.3	1188	1170	1158	1146
